Assays:
G-401 xenograft [1] = assay: Drug efficacy evaluation by intravenous administration using G-401 xenograft mice model; assay type: in vivo; conditions: G-401 xenograft model
Experimental: G-401 cells (ATCC) were intradermally transplanted into 4-7-week-old BALB/cAnNCrj-nu/nu mice (CAnN.Cg-Foxnl/CrlCrlj, Jackson Laboratory Japan) at 5×10^5 cells/mouse. After confirming the engraftment of G-401 cells 10-40 days after transplantation, the test compound suspended in a solvent such as 10 mmol/L glycine buffer solution (pH 2.0) was administered via the tail vein at least once a week at a dose of 0.015-20 mg/kg. The tumor volume was measured over time from the start of administration, and the effect of tumor volume reduction by administration of the test compound was evaluated. The tumor volume can be calculated from the following equation using the minor axis and major axis of the tumor measured with an electronic caliper (Mitutoyo).
A control administration group administered with only a solvent such as 10 mmol/L glycine buffer solution (pH 2.0) and a test compound administration group were compared, and the antitumor effect was evaluated by calculating T/C from the following equation.

recombinant p300 = recombinant p300 (Homo sapiens (Human), UniProt Q09472); assay: HAT activity inhibition experiment (SensoLyte HAT(p300) Assay Kit); assay type: biochemical
Experimental: The HAT activity inhibitory ability of HAT inhibitors was evaluated using SensoLyte HAT(p300) Assay Kit (ANASPEC, AS-72172). Specifically, 7.5 μL of the compound of Examples […] diluted with assay buffer was added to 7.5 μL of recombinant p300 solution diluted 10 times with assay buffer, and the mixture was incubated at room temperature for 10 minutes. 7.5 μL of acetyl CoA solution diluted 10 times with assay buffer and 15 μL of histone H3 peptide diluted 10 times with assay buffer were added thereto, and the mixture was incubated at 37° C. for 30 minutes. 37.5 μL of Stop Solution was added to stop the reaction. 75 μL of p300 Developer solution diluted 50 times with assay buffer was added, and the mixture was incubated at room temperature for 30 minutes under light-shielded conditions. The fluorescence at 513 nm when irradiated with 389 nm excitation light was measured using a multiplate reader.

hDAT = hDAT (Homo sapiens (Human), UniProt Q01959); assay: Dopamine receptor inhibitory activity evaluation (binding assay, CHO-S/hDAT membranes); conditions: off-target
Experimental: The binding evaluation assay was outsourced to Eurofins. Specifically, CHO—S/hDAT cells were homogenized in an incubation buffer consisting of 50 mmol/L Tris-HCl, pH 7.4, 100 mmol/L NaCl, 1 μmol/L Leupeptin, and 10 μmol/L PMSF. The membrane pellet obtained by centrifugation was resuspended in the incubation buffer to prepare a membrane preparation. The test compound (1-10 μmol/L DMSO solution), the membrane preparation, and 0.15 nmol/L […] were mixed and incubated at 4° C. for 180 minutes. The cell membrane-[^125I]RTI-55 complex was bound to a GF/B filter mat by vacuum filtration and washed with 50 mmol/L Tris-HCl, pH 7.4. The effect on the receptor was assessed by measuring radioactivity using a scintillation counter.

Solubility test = assay type: physicochemical; conditions: pH 2.0 and pH 3.0 buffers
Experimental: The solubility was measured for Examples 7, 10, 20, 23, 24, and 30 to 34, Comparative Example 1, and Comparative Example 2. The test compound was added to 10 mmol/L glycine buffer (pH 2.0) and 10 mmol/L citrate buffer (pH 3.0), and the mixture was stored in a thermostatic chamber at 5° C. After standing overnight, the mixture was filtered through a membrane filter, and the concentration of the filtrate was measured by HPLC.
The HPLC measurement conditions are as follows.
HPLC conditions • Column: Acquity UPLC BEH C18, 1.7 μm, 50×2.1 mm • Column temperature: 40° C. • Mobile phase: A: 0.1% trifluoroacetic acid-containing water • B: acetonitrile • A/B (min): 95/5 (0)→0/100 (3.5)→0/100 (4)→95/5 (4.01)→95/5 (5) • Flow rate: 0.8 mL/min • Detection: UV visible detector, measurement wavelength 254 nm • Injection volume: 5 μL or • Column: Acquity UPLC BEH C18, 1.7 μm, 50×2.1 mm • Column temperature: 40° C. • Mobile phase: A: 0.1% trifluoroacetic acid-containing water • B: acetonitrile • A/B (min): • 80/20 (0)→40/60 (3.0)→0/100 (3.5)→0/100 (4)→80/20 (4.01)→80/20 (5) • Flow rate: 0.8 mL/min • Detection: UV visible detector, measurement wavelength 254 nm • Injection volume: 2 μL or • Column: Acquity UPLC BEH C18, 1.7 μm, 50×2.1 mm • Column temperature: 40° C. • Mobile phase: A: 0.1% trifluoroacetic acid-containing water • B: acetonitrile • A/B (min): • 80/20 (0)→40/60 (3.0)→0/100 (3.5)→0/100 (4)→100/0 (4.01)→100/0 (5) • Flow rate: 0.8 mL/min • Detection: UV visible detector, measurement wavelength 254 nm • Injection volume: 3 μL

hSERT = hSERT (Homo sapiens (Human), UniProt P31645); assay: Serotonin receptor inhibitory activity evaluation (binding assay, HEK293/hSERT membranes); conditions: off-target
Experimental: The binding evaluation assay was outsourced to Eurofins. Specifically, HEK293/hSERT cells were homogenized in a buffer consisting of 100 mmol/L NaCl, 1 μmol/L Leupeptin, 10 μmol/L PMSF, and 50 mmol/L Tris-HCl (pH7.4). The membrane pellet obtained by centrifugation was resuspended in an incubation buffer consisting of 50 mmol/L Tris-HCl (pH 7.4), 120 mmol/L NaCl, and 5 mmol/L KCl to prepare a membrane preparation. The test compound (1-10 μmol/L DMSO solution), the membrane preparation, and 0.4 nmol/L [^3H]Paroxetin were mixed and incubated at 25° C. for 60 minutes. The cell membrane-[^3H]Paroxetin complex was bound to a GF/B filter mat by vacuum filtration and washed with 50 mmol/L Tris-HCl (pH 7.4). The effect on the receptor was assessed by measuring radioactivity using a scintillation counter.

[2] = Pharmacokinetic study in mice; assay type: in vivo
Experimental: The test compound was administered to 7-week-old female BALE/c (BALB/cAnN CrlCrlj) mice intravenously (dosage: 1 mg/kg) in a 50% PEG solution (0.01 mol/L HCl) or orally (dosage: 10 mg/kg) in a 0.5% methylcellulose aqueous solution, and blood was collected at the following times: • Intravenous administration: 5 min, 15 min, 30 min, 1 hr, 2 hr, 4 hr, 6 hr, and 24 hr after administration • Oral administration: 15 min, 30 min, 1 hr, 2 hr, 4 hr, 6 hr, and 24 hr after administration
The collected blood was centrifuged at 3000 rpm×10 min using a refrigerated centrifuge set at 4° C., and the obtained plasma was measured by LC-MS. A calibration curve was prepared from the value (peak ratio) obtained by dividing the peak area of the test substance by the peak area of the internal standard substance in MS and the concentration of the plasma calibration curve sample. The concentration in the sample was calculated from the peak ratio and the calibration curve of each sample.

G-401 cells = assay: Cell proliferation inhibition experiment using G-401 cells; assay type: cell-based
Experimental: G-401 cells (derived from malignant rhabdoid tumor) were obtained from the American Type Culture Collection (ATCC). G-401 cells were cultured in McCoy's 5A medium containing 10% fetal bovine serum and 1% penicillin/streptomycin under conditions of 37° C. and 5% CO2.
500 cells per well were seeded in a 384-well plate. One day after seeding, Examples 1 to 35 were added so that the final concentration of DMSO was 0.1%, and the cells were cultured for 3 days. After the culture was completed, the cell viability was measured using CellTiter-Glo Luminescent Cell Viability Assay (Promega, G7570).

G-401 xenograft [3] = assay: Drug efficacy evaluation by oral administration using G-401 xenograft model mice; assay type: in vivo
Experimental: G-401 cells (ATCC) were intradermally transplanted into 4-7-week-old BALB/cAnNCrj-nu/nu mice (CAnN.Cg-Foxnl/CrlCrlj, Jackson Laboratory Japan) at 5×10^5 cells/mouse. After confirming the engraftment of G-401 cells 10-40 days after transplantation, the test compound suspended in a solvent such as 0.5% methylcellulose solution was orally administered twice a day at a dose of 1-100 mg/kg. The tumor volume was measured over time from the start of administration, and the effect of tumor volume reduction by administration of the test compound was evaluated. The tumor volume can be calculated from the following equation using the minor axis and major axis of the tumor measured with an electronic caliper (Mitutoyo).
A control administration group administered with only a solvent such as 0.5% methylcellulose solution and a test compound administration group were compared, and the antitumor effect was evaluated by calculating T/C from the following equation.

hSERT, sequence (P31645 whole entry): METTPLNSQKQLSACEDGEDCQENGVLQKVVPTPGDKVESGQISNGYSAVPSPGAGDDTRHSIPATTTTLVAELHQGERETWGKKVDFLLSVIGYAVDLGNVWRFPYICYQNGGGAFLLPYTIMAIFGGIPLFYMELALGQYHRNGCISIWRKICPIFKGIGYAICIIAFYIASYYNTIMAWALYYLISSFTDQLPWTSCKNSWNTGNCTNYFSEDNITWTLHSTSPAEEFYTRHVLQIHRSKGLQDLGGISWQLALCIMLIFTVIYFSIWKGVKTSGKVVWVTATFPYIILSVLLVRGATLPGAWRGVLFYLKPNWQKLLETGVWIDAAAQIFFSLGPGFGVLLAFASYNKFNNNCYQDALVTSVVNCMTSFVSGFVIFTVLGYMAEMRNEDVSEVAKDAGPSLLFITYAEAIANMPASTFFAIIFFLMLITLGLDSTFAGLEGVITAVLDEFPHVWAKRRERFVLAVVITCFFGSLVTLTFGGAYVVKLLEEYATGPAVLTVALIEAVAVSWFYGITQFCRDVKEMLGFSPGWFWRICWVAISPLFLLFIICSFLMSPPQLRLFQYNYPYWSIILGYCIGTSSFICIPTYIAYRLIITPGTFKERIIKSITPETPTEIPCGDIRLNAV
hDAT, sequence (Q01959 whole entry): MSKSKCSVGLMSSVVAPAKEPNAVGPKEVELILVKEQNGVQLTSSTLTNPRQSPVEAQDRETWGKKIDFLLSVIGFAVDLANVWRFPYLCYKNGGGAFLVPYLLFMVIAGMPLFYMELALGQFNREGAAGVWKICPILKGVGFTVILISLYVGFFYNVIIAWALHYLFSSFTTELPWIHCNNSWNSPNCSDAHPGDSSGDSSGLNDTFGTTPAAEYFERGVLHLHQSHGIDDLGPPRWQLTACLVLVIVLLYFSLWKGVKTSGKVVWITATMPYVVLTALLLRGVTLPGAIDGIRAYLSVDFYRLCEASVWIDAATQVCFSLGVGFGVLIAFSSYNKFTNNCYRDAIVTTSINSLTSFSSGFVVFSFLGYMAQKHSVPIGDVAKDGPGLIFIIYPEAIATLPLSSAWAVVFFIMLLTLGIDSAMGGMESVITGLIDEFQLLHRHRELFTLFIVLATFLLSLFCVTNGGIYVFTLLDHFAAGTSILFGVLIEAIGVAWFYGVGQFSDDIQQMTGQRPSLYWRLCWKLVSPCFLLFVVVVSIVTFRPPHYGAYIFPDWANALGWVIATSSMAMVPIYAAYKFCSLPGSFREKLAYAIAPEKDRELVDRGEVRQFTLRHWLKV
recombinant p300, sequence (Q09472 whole entry): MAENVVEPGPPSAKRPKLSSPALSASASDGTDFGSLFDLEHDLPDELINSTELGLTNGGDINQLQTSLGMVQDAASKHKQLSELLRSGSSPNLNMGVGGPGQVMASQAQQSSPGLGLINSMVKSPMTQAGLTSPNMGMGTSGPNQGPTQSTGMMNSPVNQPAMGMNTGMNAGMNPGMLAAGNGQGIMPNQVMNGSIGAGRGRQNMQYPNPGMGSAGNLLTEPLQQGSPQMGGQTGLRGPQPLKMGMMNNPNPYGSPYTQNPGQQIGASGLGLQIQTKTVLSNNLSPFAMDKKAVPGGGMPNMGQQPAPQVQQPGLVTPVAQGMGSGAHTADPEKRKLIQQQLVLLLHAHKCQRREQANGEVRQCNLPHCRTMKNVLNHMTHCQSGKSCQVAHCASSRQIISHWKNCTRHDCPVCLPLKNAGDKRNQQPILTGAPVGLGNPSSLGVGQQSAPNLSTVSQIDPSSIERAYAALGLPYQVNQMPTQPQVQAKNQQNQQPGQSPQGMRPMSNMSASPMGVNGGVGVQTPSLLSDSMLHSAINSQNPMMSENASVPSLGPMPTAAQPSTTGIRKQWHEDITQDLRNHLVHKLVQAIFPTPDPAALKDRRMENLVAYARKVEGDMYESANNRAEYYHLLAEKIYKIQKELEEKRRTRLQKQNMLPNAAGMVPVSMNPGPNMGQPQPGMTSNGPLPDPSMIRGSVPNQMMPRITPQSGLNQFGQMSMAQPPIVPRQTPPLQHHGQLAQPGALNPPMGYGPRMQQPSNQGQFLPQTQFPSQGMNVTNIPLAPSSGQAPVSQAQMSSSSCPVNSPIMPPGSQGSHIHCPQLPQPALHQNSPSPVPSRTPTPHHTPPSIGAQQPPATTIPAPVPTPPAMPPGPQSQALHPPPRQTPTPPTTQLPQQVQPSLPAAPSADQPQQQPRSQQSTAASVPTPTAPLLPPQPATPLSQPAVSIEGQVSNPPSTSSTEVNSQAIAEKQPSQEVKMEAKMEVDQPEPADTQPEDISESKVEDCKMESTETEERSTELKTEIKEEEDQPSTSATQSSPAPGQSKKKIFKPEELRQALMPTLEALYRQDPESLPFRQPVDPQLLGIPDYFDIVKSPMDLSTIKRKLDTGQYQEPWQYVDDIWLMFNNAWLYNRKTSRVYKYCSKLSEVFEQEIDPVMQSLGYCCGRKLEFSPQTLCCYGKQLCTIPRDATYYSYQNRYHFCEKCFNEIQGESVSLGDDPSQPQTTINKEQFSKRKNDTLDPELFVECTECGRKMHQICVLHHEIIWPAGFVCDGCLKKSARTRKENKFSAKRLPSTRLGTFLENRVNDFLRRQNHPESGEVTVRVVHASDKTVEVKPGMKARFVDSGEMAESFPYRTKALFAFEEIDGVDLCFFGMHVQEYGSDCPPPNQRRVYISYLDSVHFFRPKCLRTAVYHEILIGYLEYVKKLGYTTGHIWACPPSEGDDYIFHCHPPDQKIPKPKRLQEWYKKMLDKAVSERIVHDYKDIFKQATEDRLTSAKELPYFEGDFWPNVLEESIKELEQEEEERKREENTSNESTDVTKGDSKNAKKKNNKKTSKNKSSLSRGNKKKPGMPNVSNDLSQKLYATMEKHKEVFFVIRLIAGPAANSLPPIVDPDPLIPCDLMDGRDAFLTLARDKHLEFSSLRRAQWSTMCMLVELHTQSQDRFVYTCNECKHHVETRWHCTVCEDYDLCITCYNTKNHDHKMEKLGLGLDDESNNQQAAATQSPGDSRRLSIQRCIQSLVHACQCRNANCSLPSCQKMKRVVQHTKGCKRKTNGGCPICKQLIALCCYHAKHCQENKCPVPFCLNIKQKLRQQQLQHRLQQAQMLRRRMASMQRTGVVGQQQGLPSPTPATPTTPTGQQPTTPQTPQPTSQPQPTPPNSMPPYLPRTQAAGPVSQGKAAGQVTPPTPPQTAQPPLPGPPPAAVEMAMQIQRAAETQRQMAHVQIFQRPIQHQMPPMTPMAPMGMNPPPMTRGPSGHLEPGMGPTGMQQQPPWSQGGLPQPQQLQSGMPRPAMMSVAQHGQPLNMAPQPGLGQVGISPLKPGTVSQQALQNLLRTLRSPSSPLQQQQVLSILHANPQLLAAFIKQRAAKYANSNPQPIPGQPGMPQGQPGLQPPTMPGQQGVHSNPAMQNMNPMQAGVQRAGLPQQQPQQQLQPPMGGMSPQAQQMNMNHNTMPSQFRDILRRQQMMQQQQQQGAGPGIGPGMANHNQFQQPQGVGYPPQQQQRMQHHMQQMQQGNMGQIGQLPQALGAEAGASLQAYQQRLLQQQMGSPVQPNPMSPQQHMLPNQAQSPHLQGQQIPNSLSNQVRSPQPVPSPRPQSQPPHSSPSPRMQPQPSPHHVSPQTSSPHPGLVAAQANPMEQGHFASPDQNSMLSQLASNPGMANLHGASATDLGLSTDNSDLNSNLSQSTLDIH

HAT activity inhibition (in words) (recombinant p300): strong inhibition of HAT activity | Inhibitory effect on dopamine receptors (in words) (hDAT): did not show strong inhibitory activity | Solubility (in words) (Solubility test): high solubility | Inhibitory effect on serotonin receptors (in words) (hSERT): did not show strong inhibitory activity | Pharmacokinetics (in words) [2]: excellent pharmacokinetics
SMILES: O=C1N[C@]2(C[C@@H](F)c3cc(-c4cnn(C5CN(C6COC6)C5)c4)ccc32)C(=O)N1CC(=O)N(Cc1ccc(F)cn1)C1(C(F)(F)F)COC1 [Example 7, 2-[(1′S,3′R)-3′-fluoro-5′-{1-[1-(oxetan-3-yl)azetidin-3-yl]-1H-pyrazol-4-yl}-2,5-dioxo-2′,3′-dihydrospiro[imidazolidine-4,1′-inden]-1-yl]-N-[(5-fluoropyridin-2-yl)methyl]-N-[3-(trifluoromethyl)oxetan-3-yl]acetamide]
Antitumor effect, intravenous administration (in words) (G-401 xenograft [1]): strong antitumor effects | Cell proliferation inhibitory effect on G-401 cells (in words) (G-401 cells): strong cell proliferation inhibitory effect | Antitumor effect, oral administration (in words) (G-401 xenograft [3]): strong antitumor effects

Reference: patent US20250263415A1, “TERTIARY AMIDE DERIVATIVES SUBSTITUTED WITH 4-MEMBERED RING STRUCTURE” (Sumitomo Pharma Co., Ltd., priority 2024, published 2025)
